Columns and labels:
[1] = for Appearance observed: dry powder; for Angle of repose: funnel method, arctg (H/r); for fluidity: judged from angle of repose
Procedure: The angle of repose is a common index for evaluating the fluidity of dry powder. When measuring the angle of repose, the funnel is fixed at a suitable height H. The dry powder prepared in Example 1 was placed in a funnel and naturally leaked to form a pile until tip of the cone almost contacts the outlet of the funnel. Then, the radius r of the bottom surface of the cone was measured, and the angle of repose is arctg (H/r).

[2] = measured by a laser granulometer
Procedure: Step 3: 0.2 g of donepezil semi pamoate seed crystals (the preparation method refers to example 4 of patent WO2013078608) were added into the filtrate obtained in step 1 to obtain a solution. Then the filtrate obtained in step 2 was slowly and dropwise added into the above solution at room temperature over 1 hour, slowly stirred for 5-10 hours with an anchor stir bar and filtered.
Step 1 and step 2 are the same as those of powder 1 #. Step 3: 0.2 g of donepezil semi pamoate seed crystals (the preparation method is the same as above) were added into the filtrate obtained in step 1 to obtain a solution. Then the filtrate obtained in step 2 was slowly and dropwise added into the above solution at 4-10° C. over 1 hour, stirred for 1-2 hours at room temperature and filtered.
Step 1 and step 2 are the same as those of powder 1 #. Step 3: 0.2 g of donepezil semi pamoate seed crystals (the preparation method refers to patent WO2013078608) were added into the filtrate obtained in step 1 to obtain a solution. Then the obtained solution was heated to 50-60° C. The filtrate obtained in step 2 was slowly and dropwise added into the above solution. After completion of the addition, the reaction solution was cooled to room temperature, stirred for 1-2 hours, and filtered.

[3] = 160° C. for 2 hours
Procedure: The powder 3 # prepared in Example 1 was placed at 160° C. for 2 hours, and the changes in appearance and weight loss thereof were recorded.

Compound | Appearance observed [1] | Angle of repose [1] [°] | fluidity [1] | average particle size D50 [2] [µm] | changes in appearance [3] | weight loss [3]
COc1cc2c(cc1OC)C(=O)C(CC1CCN(Cc3ccccc3)CC1)C2.COc1cc2c(cc1OC)C(=O)C(CC1CCN(Cc3ccccc3)CC1)C2.O=C(O)c1cc2ccccc2c(Cc2c(O)c(C(=O)O)cc3ccccc23)c1O [Powder 5#, donepezil semi pamoate] | Obvious static electricity, | 50 ± 4 | poor fluidity | 0.9 ± 0.4 |  | 
COc1cc2c(cc1OC)C(=O)C(CC1CCN(Cc3ccccc3)CC1)C2.COc1cc2c(cc1OC)C(=O)C(CC1CCN(Cc3ccccc3)CC1)C2.O=C(O)c1cc2ccccc2c(Cc2c(O)c(C(=O)O)cc3ccccc23)c1O [Powder 4#, donepezil semi pamoate] | Homogeneous solid particles | 38 ± 3 | certain fluidity | 3 ± 1 |  | 
COc1cc2c(cc1OC)C(=O)C(CC1CCN(Cc3ccccc3)CC1)C2.COc1cc2c(cc1OC)C(=O)C(CC1CCN(Cc3ccccc3)CC1)C2.O=C(O)c1cc2ccccc2c(Cc2c(O)c(C(=O)O)cc3ccccc23)c1O [Powder 1#, donepezil semi pamoate] | Homogeneous solid particles | 28 ± 4 | certain fluidity | 90 ± 17 |  | 
COc1cc2c(cc1OC)C(=O)C(CC1CCN(Cc3ccccc3)CC1)C2.COc1cc2c(cc1OC)C(=O)C(CC1CCN(Cc3ccccc3)CC1)C2.O=C(O)c1cc2ccccc2c(Cc2c(O)c(C(=O)O)cc3ccccc23)c1O [Powder 2#, donepezil semi pamoate] | Homogeneous solid particles | 35 ± 3 | certain fluidity | 42 ± 10 |  | 
COc1cc2c(cc1OC)C(=O)C(CC1CCN(Cc3ccccc3)CC1)C2.COc1cc2c(cc1OC)C(=O)C(CC1CCN(Cc3ccccc3)CC1)C2.O=C(O)c1cc2ccccc2c(Cc2c(O)c(C(=O)O)cc3ccccc23)c1O [Powder 3#, donepezil semi pamoate] | Homogeneous solid particles | 42 ± 1 | certain fluidity | 13 ± 2 | gradually changed from light yellow to bright brown, and finally coagulated and melted | about 5.14%

From US11801239B2, “Powder injection of the donepezil semi palmoxiric acid salt, composition containing same and preparation method therefor” (priority 2017, dated 2023)
